According to US7745641B2, “Nitrogen-containing heterocyclic compound” (Kyowa Hakko Kirin Co., Ltd., priority 2005, dated 2010):

Experiments:
Aurora = Aurora inhibitory activity using Western blotting method (phosphorylation of histone H3 Ser10); assay type: cell-based, human; details: 10 μmol/L, 30 minutes, HCT116 cells accumulated in M phase with Nocodazole
From the text: It is known that Aurora phosphorylates Ser10 of histone H3 in the G2/M phase during the cell cycle [Molecular and Cellular Biology, Vol. 22, p. 874 (2002)]. Consequently, the inhibition of phosphorylation of histone H3 Ser10 in cells was detected by a Western blotting method using human colon cancer cell line HCT116 cells accumulated in the M phase. McCoy's 5A culture medium (GIBCO, Catalogue No. 16600-082) containing 10% bovine fetus serum (GIBCO, Catalogue No. 10099-141) was used for the cultivation of the cells. The HCT116 cells were inoculated and then treated with Nocodazole (Sigma Corporation, Catalogue No. M-1404) so that the cell cycle was accumulated to the M phase. A test compound (final concentration: 10 μmol/L) was added thereto, and the cells were incubated at 37° C. for 30 minutes. The cells were then recovered and washed with a phosphate buffered saline (PBS) once. The cells were suspended in a cell-solubilizing solution (50 mmol/L 2-[4-(2-hydroxyethyl)-1-piperazinyl]ethanesulfonic acid (HEPES) (pH 7.4), 150 mmol/L NaCl, 1 mmol/L ethylenediamine-N,N,N′,N′-tetraacetic acid disodium salt dihydrate (EDTA), 2.5 mmol/L ethylene glycol bis(2-aminoethylether)-N,N,N′,N′-tetraacetic acid (EGTA), 0.1% Tween-20 (Bio-Rad Laboratories Inc., Catalogue No. 170-6531), 10% β-glycerophosphate, 1 mmol/L NaF, 0.1 mmol/L Na3VO4, 1 mmol/L Pefabloc SC (Roche Diagnostics K.K., Catalogue No. 1 429 868), and Complete EDTA-free (Roche Diagnostics K.K., Catalogue No. 1 873 580)}, and the suspension was frozen and thawed. Subsequently, the supernatant obtained by centrifugal separation was used as a cell extraction solution. SDS-PAGE was performed using a 12.5% polyacrylamide gel under the condition that the amount of protein per sample was 30 μg in accordance with the method used by Laemmli et al. The protein was transferred onto a PVDF membrane (Millipore Corporation, Catalogue No. IPVH304F0) by a semi-dry method. The membrane was allowed to react with anti-phosphorylated histone H3 Ser10 antibody (Upstate Inc., Catalogue No. 06-570) used as a primary antibody, and an HRP-labeled anti-rabbit IgG antibody (Amersham biosciences, Catalogue No. NA934V) used as a secondary antibody. Subsequently, […] was detected using a SuperSignal West Pico chemiluminescence substrate (Pierce, Catalogue No. 34077).

HCT116 cells = test: Evaluation of Aurora inhibitory activity by analysis of nuclear morphology (enlarged lobed nuclei); assay type: cell-based, human; details: concentration in the range of 0.1 to 1 μmol/L, 17 hours contact; optimal concentration different in each compound
Method: 281 (2003)]. Consequently, enlarged lobed nuclei-inducibility of test compounds for HCT116 cells was evaluated. McCoy's 5A culture medium (GIBCO, Catalogue No. 16600-082) containing 10% bovine fetus serum (GIBCO, Catalogue No. 10099-141) was used for the cultivation of the cells. HCT116 cells were inoculated and, 24 hours later, each test compound was added thereto.

melting point | Structure (SMILES) | suppression of the phosphorylation of histone H3 Ser10 in HCT116 cells (Aurora) | ability of inducing enlarged lobed nuclei for HCT116 cells (HCT116 cells)
– | Cl.O=C1NCc2c(Cl)ccc(-c3cc4cc(C(=O)N5CCNCC5)ccc4[nH]3)c21 [Compound 22] | almost completely suppressed | show ability of inducing enlarged lobed nuclei
> 295 °C | O=C1NCc2c(Cl)ccc(-c3cc4cc(C(=O)N5CCN(CCO)CC5)ccc4[nH]3)c21 [Compound 23, 4-Chloro-7-{1H-5-[4-(2-hydroxyethyl)piperazin-1-ylcarbonyl]indol-2-yl}isoindolinone] | – | –
– | Cl.Cl.O=C1NCc2c(Cl)ccc(-c3cc4cc(CN5CCN(CCO)CC5)ccc4[nH]3)c21 [Compound 24, 4-Chloro-7-{1H-5-[4-(2-hydroxyethyl)piperazin-1-ylmethyl]indol-2-yl}isoindolinone dihydrochloride] | almost completely suppressed | show ability of inducing enlarged lobed nuclei
– | Cl.O=C1NCc2c(Cl)ccc(-c3cc4cc(CN5CCCCC5)ccc4[nH]3)c21 [Compound 29, 4-Chloro-7-[1H-5-(piperidinomethyl)indol-2-yl]isoindolinone hydrochloride] | almost completely suppressed | show ability of inducing enlarged lobed nuclei
– | Cl.O=C1NCc2c(Cl)ccc(-c3cc4cc(CNCCO)ccc4[nH]3)c21 [Compound 32, 4-Chloro-7-{1H-5-[(2-hydroxyethyl)aminomethyl]indol-2-yl}isoindolinone hydrochloride] | almost completely suppressed | show ability of inducing enlarged lobed nuclei
246 °C | O=C(NCc1ccccc1)c1ccc2[nH]c(-c3ccc(Cl)c4c3C(=O)NC4)cc2c1 [Compound 57, 4-Chloro-7-[1H-5-(benzylaminocarbonyl)indol-2-yl]isoindolinone] | – | –
– | Cl.O=C1NCc2c(O)ccc(-c3cc4cc(CN5CCCCC5)ccc4[nH]3)c21 [Compound 139, 4-Hydroxy-7-[1H-5-(piperidinomethyl)indol-2-yl]isoindolinone hydrochloride] | almost completely suppressed | show ability of inducing enlarged lobed nuclei
– | Cl.O=C1NCc2c(-c3ccco3)ccc(-c3cc4cc(CN5CCCCC5)ccc4[nH]3)c21 [Compound 143, 4-(Furan-2-yl)-7-[1H-5-(piperidinomethyl)indol-2-yl]isoindolinone hydrochloride] | almost completely suppressed | show ability of inducing enlarged lobed nuclei
– | Cl.NS(=O)(=O)Oc1ccc(-c2cc3cc(CN4CCCCC4)ccc3[nH]2)c2c1CNC2=O [Compound 231, 4-Sulfamoyloxy-7-[1H-5-(piperidinomethyl)indol-2-yl]isoindolinone hydrochloride] | almost completely suppressed | show ability of inducing enlarged lobed nuclei
– | Cl.O=C1NCc2c(C#CCO)ccc(-c3cc4cc(CN5CCCCC5)ccc4[nH]3)c21 [Compound 321, 4-(3-Hydroxy-1-propinyl)-7-[1H-5-(piperidinomethyl)indol-2-yl]isoindolinone hydrochloride] | almost completely suppressed | show ability of inducing enlarged lobed nuclei
– | COc1cc(-c2cc3cc(CN(C)C)ccc3[nH]2)c2c(c1O)CNC2=O.Cl [Compound 357, 4-Hydroxy-5-methoxy-7-[1H-5-(dimethylaminomethyl)indol-2-yl]isoindolinone hydrochloride] | almost completely suppressed | show ability of inducing enlarged lobed nuclei
– | CNCc1ccc2[nH]c(-c3cc(OC)c(OS(C)(=O)=O)c4c3C(=O)NC4)cc2c1.Cl [Compound 375, 4-Methanesulfonyloxy-5-methoxy-7-[1H-5-(methylaminomethyl)indol-2-yl]isoindolinone hydrochloride] | almost completely suppressed | show ability of inducing enlarged lobed nuclei
– | CCN(CC)Cc1ccc2[nH]c(-c3cc(OC)c(OS(C)(=O)=O)c4c3C(=O)NC4)cc2c1.Cl [Compound 376, 4-Methanesulfonyloxy-5-methoxy-7-[1H-5-(diethylaminomethyl)indol-2-yl]isoindolinone hydrochloride] | almost completely suppressed | show ability of inducing enlarged lobed nuclei
– | COc1cc(-c2cc3cc(CN4CCCCC4)ccc3[nH]2)c2c(c1OS(=O)(=O)c1ccsc1)CNC2=O.Cl [Compound 407, 4-(3-Thiophenesulfonyloxy)-5-methoxy-7-[1H-5-(piperidinomethyl)indol-2-yl]isoindolinone hydrochloride] | almost completely suppressed | show ability of inducing enlarged lobed nuclei
– | COc1cc(-c2cc3cc(CN(C)C)ccc3[nH]2)c2c(c1OS(=O)(=O)c1ccccn1)CNC2=O.Cl [Compound 412, 4-(2-Pyridinesulfonyloxy)-5-methoxy-7-[1H-5-(dimethylaminomethyl)indol-2-yl]isoindolinone hydrochloride] | almost completely suppressed | show ability of inducing enlarged lobed nuclei
– | COc1cc(-c2cc3cc(CN4CCCC4)ccc3[nH]2)c2c(c1OS(=O)(=O)N(C)C)CNC2=O.Cl [Compound 417, 4-(Dimethylsulfamoyloxy)-5-methoxy-7-[1H-5-(pyrrolidin-1-ylmethyl)indol-2-yl]isoindolinone hydrochloride] | almost completely suppressed | show ability of inducing enlarged lobed nuclei
– | CN(C)Cc1ccc2[nH]c(-c3cc(OCCCO)c(Cl)c4c3C(=O)NC4)cc2c1.Cl [Compound 431, 4-Chloro-5-(3-hydroxypropoxy)-7-[1H-5-(dimethylaminomethyl)indol-2-yl]isoindolinone hydrochloride] | almost completely suppressed | show ability of inducing enlarged lobed nuclei
– | COCCCNCc1ccc2[nH]c(-c3cc(OC)c(OS(C)(=O)=O)c4c3C(=O)NC4)cc2c1.Cl [Compound 454, 4-Methanesulfonyloxy-5-methoxy-7-[1H-5-(3-methoxypropylaminomethyl)indol-2-yl]isoindolinone hydrochloride] | almost completely suppressed | show ability of inducing enlarged lobed nuclei
– | COc1cc(-c2cc3cc(N4CCN(C)CC4)ccc3[nH]2)c2c(c1OS(C)(=O)=O)CNC2=O.Cl.Cl [Compound 457, 4-Methanesulfonyloxy-5-methoxy-7-[1H-5-(4-methylpyperazin-1-yl)indol-2-yl]isoindolinone dihydrochloride] | almost completely suppressed | show ability of inducing enlarged lobed nuclei
